“And” between values parts separate entries of the source, which are not always exact repeats. Identical values can stand only once.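 Five concentrations, 48 hours, 96-well plates. GI50 = concentration required for 50% inhibition of growth. TGI marks complete inhibition of growth.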

The test system of the test is MDA-MB-468 breast. In words: DTP human tumour cell line panel, 48 h.
As to `Nc1nc(N)c2c(n1)NC(c1ccc(Cl)cc1)C1CCc3ccccc3C1=N2` (configuration not stated), the GI50 – broadly, the concentration at which growth is held to half of that of the control – is 1.6 µM and the TGI (as a rule, the concentration at which net growth stops) worked out at 14.5 µM.

As for `COc1ccc(N2CCN(c3nc(-c4ccccn4)nc4sc5c(c34)CCCCCC5)CC2)cc1`, the GI50 was 4.11 µM and the TGI is above 100 µM.

As for `CC1(/C=C/c2ccc(-c3ccccc3)cc2)CCn2cnc3ncnc(c32)N1O` (configuration not stated), the GI50 is 0.276 µM and the TGI worked out at 0.872 µM.

For `O=C(Nc1cccc(Cl)c1)Nc1cc(C(F)(F)F)ccc1Cl`, the GI50 is 1.99 µM and the TGI was found to be 4.73 µM.

`CCCCCCCN(CCCCCCC)C(=N)c1ccc(OC)c2ccccc12`: the GI50 is 1.23 µM and the TGI worked out at 2.81 µM.

With `O=C(Nc1ccc([N+](=O)[O-])cc1Cl)c1cc(Cl)ccc1O`, the GI50 is 0.121 µM and 0.26 µM; the TGI is 0.388 µM and 0.782 µM.

`O=c1[nH]c(=O)n(C2C[C@@H](O)[C@@H](CO)O2)cc1F` (some centres not stated): the GI50 was 0.0444 µM and the TGI turned out to be 36.3 µM.

With `CN1CCN(CCCn2c3c(sc4ncccc43)c(=O)n3nnc(-c4ccccc4)c23)CC1`, the GI50 was 1.72 µM and the TGI is 3.25 µM.

`COc1cc2cc(Oc3ccc(NC(=O)c4cccc(C(F)(F)F)c4)cc3)c(C)nc2cc1OCCN1CCCCC1`: the GI50 is 14.1 µM and the TGI was 29.1 µM.

With `O=C1NC(=O)/C(=C/c2ccc3nccc(-c4ccncc4)c3c2)S1`, the GI50 is 0.185 µM and the TGI is 1.17 µM.

In the case of `Fc1ccc(Nc2ccnc(N3CCN(c4ccnc5cc(Cl)ccc45)CC3)n2)cc1`, the GI50 is 2.41 µM and the TGI was 19.3 µM.

As to `COC1C[C@H](O[C@@H]2C[C@H](O[C@@H]3C[C@H](O[C@@H]4C(=O)c5c(cc6cc(O[C@H]7C[C@@H](O[C@H]8C[C@@H](O)[C@H](O)C(C)O8)[C@H](O)C(C)O7)c(C)c(O)c6c5O)C[C@H]4C(OC)C(=O)[C@@H](O)[C@@H](C)O)OC(C)[C@H]3O)OC(C)[C@@H]2O)OC(C)[C@@H]1O` (some centres not stated), the GI50 was 0.109 µM and the TGI came out at 0.723 µM.

`O=C(Nc1n[nH]c2cc(-c3ccc(F)cc3)ccc12)C1CC1`: the GI50 is 3.42 µM and the TGI was above 16.2 µM.

On to `O=[N+]([O-])c1ccc(NC(c2ccccc2)c2ccc3cccnc3c2O)cc1` (configuration not stated), for which the GI50 is 0.363 µM and the TGI worked out at 2.05 µM.

`Clc1ccc(Nc2nnc(COc3ccccc3)c3ccccc23)cc1`: the GI50 is 1.49 µM and the TGI is 7.62 µM.

On to `c1ccc(OCC[P+](c2ccccc2)(c2ccccc2)c2ccccc2)cc1`, for which the GI50 was 0.152 µM and the TGI was determined as 0.736 µM.

Regarding `c1ccc2c(c1)CCCc1nnc3nc4ccccc4n3c1-2`, the GI50 was 6.55 µM and the TGI worked out at 74.7 µM.

With `Cc1cc(C(=O)NOCCO)c(Nc2ccc(I)cc2F)n(C)c1=O`, the GI50 was > 10 µM and 68.2 µM; the TGI is above 100 µM.

`Cc1ccccc1N=C(c1ccccc1)C1C(=O)c2ccccc2C1=O`: the GI50 was 6.22 µM and the total growth inhibition concentration (TGI) was above 100 µM.

For the compound `COc1ccc(C2CC(=O)Nc3c2c(C)nn3-c2nc3ccccc3[nH]2)cc1OC` (configuration not stated), the GI50 is 3.09 µM and the concentration for total growth inhibition (TGI) worked out at 16.8 µM.

Turning to `COc1cc(N2CCN(C(C)C)CC2)ccc1Nc1nc(Nc2ccc(F)cc2C(N)=O)c2cc[nH]c2n1`, the GI50 is 0.999 µM and the total growth inhibition concentration (TGI) is 5.49 µM.

As to `COc1cc(/C=C/[N+](=O)[O-])cc(OC)c1`, the GI50 is 1.64 µM and the TGI came out at 3.53 µM.

Consider `CNC(=O)c1cc(Oc2ccc(NC(=O)Nc3ccc(Cl)c(C(F)(F)F)c3)cc2)ccn1`, for which the GI50 is 1.42 µM and 2.03 µM and 2.09 µM; the concentration for total growth inhibition (TGI) was 7.91 µM and 8.05 µM and 7.7 µM.

With `Cn1cc(-c2nc(-c3c[nH]c4ccccc34)cs2)c2cccnc21`, the GI50 was 0.252 µM and the TGI was 0.827 µM.

Consider `COc1ccc(COc2ccc(Cc3cnc(N)nc3N)cc2OC)cc1`, for which the GI50 is 3.27 µM and the TGI stood at 19.6 µM.

With `CC(=O)OCc1cc[c]([Hg][Cl])o1`, the GI50 was 1.5 µM and the total growth inhibition concentration (TGI) worked out at 3.44 µM.

Turning to `COc1ccc(CNCCN2C(=O)c3ccc4c5c(ccc(c35)C2=O)C(=O)N(CCNCc2ccc(OC)c(OC)c2OC)C4=O)c(OC)c1OC`, the 50% growth inhibitory concentration (GI50) is 0.0822 µM and the TGI is 0.164 µM.

As to `CS(=O)(=O)Nc1cc(-c2ccc3ncnc(Nc4ccc(OCc5ccccn5)c(Cl)c4)c3c2)cnc1Cl`, the concentration for 50% growth inhibition (GI50) is 0.156 µM and the TGI turned out to be 0.78 µM.

In the case of `Cn1cc(-c2[nH]c3cc(NC(=O)[C@H](N)C4CCCCC4)cc4c3c2C=NNC4=O)cn1`, the GI50 is 0.164 µM and 0.503 µM; the TGI is 0.827 µM and > 5.3 µM.

For `O=C(/C=C/c1cc2ccccc2[nH]c1=O)c1ccc(O)cc1`, the GI50 is 2.12 µM and the TGI stood at 5.3 µM.

On to `Cc1c(-c2c(F)cc(C(N)=O)c3[nH]c4c(c23)CC[C@H](C(C)(C)O)C4)cccc1-n1c(=O)c2cccc(F)c2n(C)c1=O`, for which the GI50 was 3.06 µM and the TGI was above 100 µM.

Regarding `C[C@H]1O[C@@H](O[C@H]2[C@@H](O)C[C@H](O[C@H]3[C@@H](O)C[C@H](O[C@H]4CC[C@]5(C)C6CC[C@]7(C)[C@@H](C8=CC(=O)OC8)CC[C@]7(O)C6CC[C@@H]5C4)O[C@@H]3C)O[C@@H]2C)C[C@H](O)[C@@H]1O` (some centres not stated), the concentration for 50% growth inhibition (GI50) was 0.0667 µM and the TGI was found to be 0.202 µM.

Take `O=C(COc1ccc(Cl)cc1Cl)NNc1ccc([N+](=O)[O-])cc1`: the GI50 was 37.5 µM and the TGI was above 100 µM.

Turning to `Cc1cccc(Nc2ncc(-c3ccccc3)o2)c1`, the GI50 was 7.05 µM and the TGI was above 25 µM.

Regarding `O=C(Nc1c(Cl)cccc1Cl)Oc1cccc2cccnc12`, the GI50 was 2.91 µM and the TGI is 13.9 µM.

For the compound `C=C1C(=O)O[C@H]2[C@H]1CC/C(COC(=O)NCCc1ccc(Br)cc1)=C\CC[C@@]1(C)O[C@@H]21`, the GI50 is 0.841 µM and the TGI came to 2.47 µM.

As to `C#Cc1cccc(NC(=O)C2CCCCN2C(=O)CCl)c1` (configuration not stated), the GI50 was 11.2 µM and the TGI was 34.1 µM.

For the compound `Nc1cc2c3ccccc3ccc2c2ccccc12`, the GI50 is above 100 µM and the TGI is above 100 µM.

For `COc1cccc(/C=C/C(=O)c2cc3c(N)c(C(=O)Nc4ccccc4)sc3nc2C)c1`, the GI50 was 0.906 µM and the TGI is 1.84 µM.

Turning to `COc1cc2cc(C(=O)Nc3ccccc3)c(N)nc2cc1OC`, the GI50 is 21.9 µM and the TGI was above 100 µM.

Regarding `CCN1C(=O)N(CC)C2C1NN=c1s/c(=C\c3ccc(Br)cc3)c(=O)n12` (configuration not stated), the GI50 is 0.0697 µM and the TGI turned out to be 0.516 µM.

The record behind these values is PubChem BioAssay (NCI).
